{"source": "patent US8828355B2", "about": "“Imaging reporters of transgene expression” (University of Utah Research Foundation, priority 2004, dated 2014)", "origin": "cited, not measured here", "key": {"Maltose binding protein": {"target": "Maltose binding protein (Escherichia coli, UniProt P0AEX9)", "details": "specificity"}, "[1]": {"target": "Mutant maltose binding protein, combination of both these mutations (Escherichia coli, UniProt P0AEX9, DEL198-201/M347A/Q351A/Y202G)", "details": "read-out: KD for maltotriose"}}, "data": [{"compound": "OC[C@H]1O[C@@H](O[C@H]2[C@H](O)[C@@H](O)C(O)O[C@@H]2CO)[C@H](O)[C@@H](O)[C@H]1O", "note": "(stereo partly shown) [lactose]", "values": [{"measurement": "binding to maltose binding protein", "setting": "Maltose binding protein", "value": "not to bind"}]}, {"compound": "OC[C@H]1O[C@H](O[C@H]2[C@H](O)[C@@H](O)[C@H](O)O[C@@H]2CO)[C@H](O)[C@@H](O)[C@@H]1O", "note": "[maltose]", "values": [{"measurement": "clearance from the body", "setting": "infused", "value": "rapidly cleared from the body by the kidney"}, {"measurement": "distribution after infusion", "setting": "infused", "value": "distributed in the extracellular space"}, {"measurement": "safety of intravenous infusion", "setting": "intravenous infusion", "value": "safe"}]}, {"compound": "OC[C@H]1O[C@@](CO)(O[C@H]2O[C@H](CO)[C@@H](O)[C@H](O)[C@H]2O)[C@@H](O)[C@@H]1O", "note": "[sucrose]", "values": [{"measurement": "binding to maltose binding protein", "setting": "Maltose binding protein", "value": "not to bind"}]}, {"compound": "OC[C@H]1O[C@H](O[C@H]2O[C@H](CO)[C@@H](O)[C@H](O)[C@H]2O)[C@H](O)[C@@H](O)[C@@H]1O", "note": "[trehalose]", "values": [{"measurement": "binding to maltose binding protein", "setting": "Maltose binding protein", "value": "not to bind"}]}, {"compound": "maltotriose", "values": [{"measurement": "Kd", "setting": "[1]", "value": 6, "unit": "nM"}]}]}
